Assay results published in US20200308546A1, “ENGINEERED CARDIOMYOCYTES AND USES THREOF” (THE J. DAVID GLADSTONE INSTITUTES, A TESTAMENTARY TRUST …, priority 2016, published 2020).

Legend:
iWT cardiomyocytes = assay: Traction force microscopy of paced engineered cardiomyocytes (force generation, beat rate), iWT; type: cell-based, human; details: wild-type cells, FIGS. 93-95
From the text: FIG. 93 is a set of graphs showing force generation of engineered cardiomyocytes treated with a PI3K inhibitor (left) or PI3K activator (right). Relative change in force generation between iWT (black) and G296S (grey) cardiomyocytes after inhibition (circle) or activation (triangle) of P13K signaling. Traction force microscopy (TFM) measurements of CMs responding accurately to 1 Hz pacing. Data are mean±sem, *,p<0.05, **,p<0.005, ***p<0.0005 (Mann-Whitney test).
FIG. 94 is a schematic illustrating the postulated protein-protein interaction in wild-type (top) and G296S mutant (bottom) cardiomyocytes. Beat rate measurements between iWT (black) and G296S (grey) cardiomyocytes after inhibition (circle) or activation (triangle) of P13K signaling. TFM measurements of cardiomyocytes responding accurately to 1 Hz pacing. Data are mean±sem, *,p<0.05, ** p<0.005, ***p⋅<0.0005 (Mann-Whitney test).
A “scale-free” network (Barabasl and Albert, ⋅1999) of 716 nodes connected by 2,353 edges with an average 6.6 neighbors and path length of 4.3 (FIG. 90). Nodes were connected by edges representing physical (protein-protein) or functional (genetic, co-expression, co-occurrence) interactions. At least 5 sub-networks connected through 20 regulatory “hubs” were identified. […]

[1] = test system: hiPS cell-derived cardiomyocytes; assay: Calcium flux measurements of hiPS cell-derived cardiomyocytes; type: cell-based, human; details: isoproterenol followed by carbachol, FIG. 17
From the text: A step-wise differentiation protocol was used to generate purified cardiomyocytes from the above-described iPS cell lines (FIG. 12) (Lian et al, 2012; Tohyama et al.,2013). […] The iPS cardiomyocytes spontaneously contracted, expressed high levels of sarcomeric and myofibril markers, and had membrane electrophysiology and gene expressions similar to human cardiomyocytes; 30% were binucleated (FIGS. 15 and 16). […] The protocol thus generated functional human cardiomyocytes suitable for deeper interrogation of cell identity and function.

Row | SMILES | beat rates (iWT cardiomyocytes) | calcium flux response [1]
1 | O=c1cc(N2CCOCC2)oc2c(-c3ccccc3)cccc12 [LY294002] | no effect | 
2 | C[N+](C)(C)CCOC(N)=O [carbachol] |  | expected response
3 | CC(C)NCC(O)c1ccc(O)c(O)c1 (stereo not drawn) [isoproterenol] |  | expected response
